Experimental data as given in patent publication US10761087B2, “Choroidal neovascularization suppressor or drusen formation suppressor, and method for assessing or screening for same” (Link Genomics, Inc., priority 2015, dated 2020).

Key:
[1] = test system: EMT markers (mesenchymal markers, ECM) in RPE cells (ARPE-19); assay: Change in expression of EMT markers (real-time PCR) in EMT-induced RPE cells; assay type: cell-based, human; settings: EMT-induced ARPE-19, 48 hours; for Enhancement of expression of Fibronectin, Snail and vimentin (mesenchymal markers): compound at Cmax, ½ of Cmax or ¼ of Cmax; for EMT suppression (FIG. 3 to FIG. 7) / Expression of EMT markers other than the ten common markers / Expression of Snail, Slug, CDH3, MMP1, MMP7, COL5A3, COL6A3, LAMC2, HMMR, TNC: oxaprozin 300 μM, epalrestat 30 μM, zafirlukast 3 μM, amlexanox 30 μM, zaltoprofen 30 μM
Description: RPE cells (ARPE-19) were seeded on a plate, and incubated for 5 days at 37° C. For the RPE cells, EMT was induced in the conditions described in Test example 1-1, and respective compounds (oxaprozin, epalrestat, zafirlukast, amlexanox, zaltoprofen) were added simultaneously, and the cells were collected after 48 hours from induction of EMT. As a control, a sample to which a compound to be assessed (test drug) is not added was used. The collected cells were washed with PBS, and 350 μL of an RLT buffer was added to prepare a lysate for RNA extraction. The respective compounds were used in the following concentrations. Oxaprozin: 300 μM, epalrestat: 30 μM, zafirlukast: 3 μM, amlexanox: 30 μM, zaltoprofen: 30 μM. Total RNA was extracted from the lysate using an RNeasy Micro kit (QIAGEN, #74004), and from 2 μg of the obtained RNA, cDNA was prepared using a SuperScript III First-Strand Synthesis SuperMix for qRT-PCR (Invitrogen, #11752-250). Using 50 ng of the obtained cDNA as a template, a real-time PCR (ABI Prism 7500 Sequence Detection System) was conducted according to the manufacturer's protocol, and expression of mRNA of each gene was quantified. Specific primers for respective genes were purchased from Invitrogen. Ct (Threshold Cycle) value of each gene was calculated as a percentage to a non-treated sample after normalization by endogenous control.
Five compounds (flufenamic acid aluminum (addition concentration: 28 μM (Cmax)), mefenamic acid (addition concentration: 39 μm (Cmax)), sulindac (addition concentration: 100 μM), tiaprofenic acid (addition concentration: 1000 μM), and seratrodast (addition concentration: 31 μM (Cmax))) were assessed for change in expression of EMT markers in the same manner as in Test example 2-1. The results are shown in FIG. 8 to FIG. 12, respectively.
(§1) RPE cells (ARPE-19) were seeded on a plate, and incubated for 5 days at 37° C. […] Each compound was added in a concentration of Cmax, ½ of Cmax or ¼ of Cmax. As a control, a sample to which a compound to be assessed (test drug) is not added was used. The collected cells were washed with PBS, and 350 μL of an RLT buffer was added to prepare a lysate for RNA extraction. Total RNA was extracted from the lysate using an RNeasy Micro kit (QIAGEN, #74004), and from 2 μg of the obtained RNA, cDNA was prepared using a SuperScript III First-Strand Synthesis SuperMix for qRT-PCR (Invitrogen, #11752-250). Using 50 ng of the obtained cDNA as a template, a real-time PCR (ABI Prism 7500 Sequence Detection System) was conducted according to the manufacturer's protocol, and expression of mRNA of each gene was quantified. Specific primers for respective genes were purchased from Invitrogen. Ct (Threshold Cycle) value of each gene was calculated as a percentage to a non-treated sample after normalization by endogenous control. For each result, a significant test (Student t test) was conducted, and when p<0.05, the result was marked with “*”, and when p<0.01, the result was marked with “**”.
RPE cells (ARPE-19) were seeded on a plate, and incubated for 5 days at 37° C. For the RPE cells, EMT was induced in the conditions described in Test example 5-1, and the five representative compounds (oxaprozin, epalrestat, zafirlukast, amlexanox, zaltoprofen) were added simultaneously, and the cells were collected after 48 hours from induction of EMT. As a control, a sample to which a compound to be assessed (test drug) is not added was used. The collected cells were washed with PBS, and 350 μL of an RLT buffer was added to prepare a lysate for RNA extraction. Total RNA was extracted from the lysate using an RNeasy Micro kit (QIAGEN, # 74004), and from 2 μg of the obtained RNA, cDNA was prepared using a SuperScript III First-Strand Synthesis SuperMix for qRT-PCR (Invitrogen, # 11752-250). […]

VEGF = assay: Change in expression of VEGF mRNA (real-time PCR) in EMT-induced RPE cells; assay type: cell-based, human; settings: EMT-induced ARPE-19, 48 hours, compound at Cmax, ½ of Cmax or ¼ of Cmax
Description: as §1
The results are shown in FIG. 16 or FIG. 17, respectively.
The VEGF suppressive effect was assessed using the cell model as described above in the same manner as in Test example 2-3. The results are shown in FIG. 18 to FIG. 20, respectively.

SMILES	Enhancement of expression of Fibronectin, Snail and vimentin (mesenchymal markers) [1]	EMT suppression (FIG. 3 to FIG. 7) [1]	Expression of EMT markers other than the ten common markers [1]	Expression of Snail, Slug, CDH3, MMP1, MMP7, COL5A3, COL6A3, LAMC2, HMMR, TNC [1]	Enhancement of VEGF mRNA expression by EMT induction (VEGF)	Enhancement of VEGF mRNA expression by EMT induction (VEGF; listed as oxaprozin)	Enhancement of VEGF mRNA expression by EMT induction (VEGF; listed as zaltoprofen)
O=C(O)CCc1nc(-c2ccccc2)c(-c2ccccc2)o1 [Oxaprozin, oxaprozin]	suppressed enhancement of expression of these in a concentration dependent manner	significantly suppress EMT	decrease in expression was observed in ZEB2, MMP3, COL1A1, COL1A2, CSPG4, and SRGN	suppressed expression	suppressed enhancement of VEGF expression in a concentration dependent manner	suppress enhancement of mRNA expression of VEGF	
CC(C(=O)O)c1ccc2c(c1)CC(=O)c1ccccc1S2 (stereo not drawn) [Zaltoprofen, zaltoprofen]	suppressed enhancement of expression of these in a concentration dependent manner	significantly suppress EMT	decrease in expression was observed in ZEB2, FN1, COL13A1, and CSPG4	suppressed expression	suppressed enhancement of VEGF expression in a concentration dependent manner		suppress enhancement of mRNA expression of VEGF
